Measurements as given in patent US20250313535A1, “ALPHA 4 BETA 7 INTEGRIN MODULATORS AND USES THEREOF” (DICE MOLECULES SV, INC., priority 2022, published 2025).
Read-outs that look alike come from different tables or passages of the source.

Legend:
[1] = molecular target: α4β7 integrin (Homo sapiens (Human), UniProt P13612+P26010); test: Integrin Adhesion Assay: Protocol 4 (MAdCAM-coated plate, RPMI-8866 cells with stable LOF mutation of the ITGB1 gene); assay type: cell-based
In short: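 RPMI-8866 cells with CRISPR/Cas9 knockout of ITGB1 (2×10^6/mL) were added to MAdCAM-coated wells with compound (1% DMSO) in HEPES/NaCl buffer with 1 mM MnCl2, 0.1 mM CaCl2 and 1% BSA, then incubated 1 h at 37 °C. After four washes, adherent cells were quantified by CellTiter-Glo luminescence. Percent inhibition versus DMSO and control compound was fitted to 4-parameter curves.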

[2] = molecular target: α4β1 integrin (Homo sapiens (Human), UniProt P05556+P13612); test: Integrin Adhesion Assay: Protocol 5 (VCAM-coated plate, RPMI-8866 cells with stable LOF mutation of the ITGB7 gene); assay type: cell-based
Sequence of α4β1 integrin (P13612 34-1032): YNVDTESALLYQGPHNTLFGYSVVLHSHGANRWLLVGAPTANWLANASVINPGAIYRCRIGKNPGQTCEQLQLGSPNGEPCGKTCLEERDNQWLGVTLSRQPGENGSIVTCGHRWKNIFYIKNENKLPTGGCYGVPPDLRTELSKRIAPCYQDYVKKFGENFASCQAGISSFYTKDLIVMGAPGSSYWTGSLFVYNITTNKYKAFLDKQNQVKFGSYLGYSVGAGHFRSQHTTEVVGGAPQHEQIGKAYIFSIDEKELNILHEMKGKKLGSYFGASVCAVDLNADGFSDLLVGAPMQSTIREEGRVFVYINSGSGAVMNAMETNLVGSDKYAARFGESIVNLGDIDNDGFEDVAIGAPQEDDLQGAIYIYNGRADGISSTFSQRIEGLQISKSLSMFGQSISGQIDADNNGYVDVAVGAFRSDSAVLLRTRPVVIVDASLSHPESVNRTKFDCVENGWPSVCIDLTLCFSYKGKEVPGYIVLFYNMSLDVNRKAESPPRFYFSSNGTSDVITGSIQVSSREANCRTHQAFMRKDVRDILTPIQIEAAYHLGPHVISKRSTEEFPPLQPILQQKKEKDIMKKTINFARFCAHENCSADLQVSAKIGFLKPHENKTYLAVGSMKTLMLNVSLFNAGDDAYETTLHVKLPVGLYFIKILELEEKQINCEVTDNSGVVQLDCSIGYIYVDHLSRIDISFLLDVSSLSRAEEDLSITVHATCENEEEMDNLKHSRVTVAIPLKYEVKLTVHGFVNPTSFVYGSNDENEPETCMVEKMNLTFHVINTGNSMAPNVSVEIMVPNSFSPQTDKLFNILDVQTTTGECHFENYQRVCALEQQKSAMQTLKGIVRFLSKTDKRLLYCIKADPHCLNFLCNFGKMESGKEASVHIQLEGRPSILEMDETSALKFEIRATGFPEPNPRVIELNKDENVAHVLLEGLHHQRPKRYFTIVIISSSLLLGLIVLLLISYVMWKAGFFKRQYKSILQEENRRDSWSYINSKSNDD
Sequence of α4β1 integrin (P05556 21-798): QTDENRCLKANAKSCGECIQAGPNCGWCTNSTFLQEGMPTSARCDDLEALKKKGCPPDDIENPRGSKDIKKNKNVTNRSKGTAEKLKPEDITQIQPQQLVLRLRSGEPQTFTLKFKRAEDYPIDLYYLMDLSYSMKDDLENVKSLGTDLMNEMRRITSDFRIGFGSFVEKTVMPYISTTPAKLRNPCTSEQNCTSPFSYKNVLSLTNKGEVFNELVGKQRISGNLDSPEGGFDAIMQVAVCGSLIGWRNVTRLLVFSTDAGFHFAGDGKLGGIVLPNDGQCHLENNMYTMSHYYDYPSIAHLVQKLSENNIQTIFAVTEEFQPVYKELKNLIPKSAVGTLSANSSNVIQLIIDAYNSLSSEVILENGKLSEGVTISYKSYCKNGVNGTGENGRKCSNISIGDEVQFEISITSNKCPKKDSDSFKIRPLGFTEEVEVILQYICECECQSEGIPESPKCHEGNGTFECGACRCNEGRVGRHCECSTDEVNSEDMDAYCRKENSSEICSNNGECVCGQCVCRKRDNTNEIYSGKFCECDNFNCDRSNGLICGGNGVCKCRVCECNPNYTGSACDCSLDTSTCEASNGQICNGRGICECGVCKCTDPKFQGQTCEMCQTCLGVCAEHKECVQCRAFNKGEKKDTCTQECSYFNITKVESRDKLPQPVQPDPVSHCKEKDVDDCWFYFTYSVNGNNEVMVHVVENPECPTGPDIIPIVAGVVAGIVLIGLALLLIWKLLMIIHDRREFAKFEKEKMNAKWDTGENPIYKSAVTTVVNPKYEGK
In short: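 RPMI-8866 B cells with CRISPR/Cas9 ITGB7 knockout (clonal, verified by flow cytometry) adhered to VCAM-coated wells for 1 h at 37° C in HEPES/NaCl buffer with 1 mM MnCl2, 0.1 mM CaCl2, 1% BSA, 1% DMSO. Bound cells quantified by CellTiter-Glo luminescence after washing; % inhibition versus DMSO and control, 4-parameter fit.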

[3] = Protocol 4, RPMI-8866 cells with LOF mutation of ITGB1, MAdCAM, read-out: Mean IC50 α4β7 KO
[4] = Protocol 5, RPMI-8866 cells with LOF mutation of ITGB7, VCAM, read-out: Mean IC50 α4β1 KO
[5] = RPMI-8866 cells with stable LOF mutation of the ITGB1 gene, read-out: Mean IC50 α4β7 KO^a
[6] = RPMI-8866 cells with stable LOF mutation of the ITGB7 gene, read-out: Mean IC50 α4β1 KO^b

Sequence of α4β7 integrin (P13612 34-1032): as the sequence (P13612 34-1032) above
Sequence of α4β7 integrin (P26010 20-798): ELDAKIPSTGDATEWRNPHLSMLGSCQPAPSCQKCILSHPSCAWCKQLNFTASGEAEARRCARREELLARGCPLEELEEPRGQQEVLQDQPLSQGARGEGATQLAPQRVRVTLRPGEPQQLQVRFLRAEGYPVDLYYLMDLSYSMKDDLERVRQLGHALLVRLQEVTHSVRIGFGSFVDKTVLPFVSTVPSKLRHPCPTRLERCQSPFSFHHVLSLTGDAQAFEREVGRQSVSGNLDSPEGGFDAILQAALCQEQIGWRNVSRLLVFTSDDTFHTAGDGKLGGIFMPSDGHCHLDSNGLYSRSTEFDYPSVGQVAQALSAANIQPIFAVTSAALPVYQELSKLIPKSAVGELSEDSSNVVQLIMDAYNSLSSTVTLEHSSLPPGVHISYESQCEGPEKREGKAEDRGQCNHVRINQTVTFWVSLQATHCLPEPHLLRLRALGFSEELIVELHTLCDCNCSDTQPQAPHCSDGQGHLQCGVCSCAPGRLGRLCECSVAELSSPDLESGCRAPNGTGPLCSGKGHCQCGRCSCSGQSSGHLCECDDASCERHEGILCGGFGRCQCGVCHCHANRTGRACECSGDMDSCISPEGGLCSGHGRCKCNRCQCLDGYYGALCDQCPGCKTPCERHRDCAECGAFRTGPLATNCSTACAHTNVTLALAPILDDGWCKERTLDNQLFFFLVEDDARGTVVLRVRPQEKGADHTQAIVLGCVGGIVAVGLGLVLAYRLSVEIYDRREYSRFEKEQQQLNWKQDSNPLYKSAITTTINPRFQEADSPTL

| SMILES | IC50 [1, 3] | IC50 [2, 4] | IC50 [1, 5] | IC50 [2, 6] |
| --- | --- | --- | --- | --- |
| COc1ccc(CN2CC(F)C2)c(OC)c1-c1cccc2c(C[C@H](NC(=O)C3(C(F)(F)F)CCN(CC(F)(F)F)CC3)C(=O)O)cccc12 [Compound 781] | 10 to 100 nM | > 1000 nM |  |  |
| COc1cc(CN2CCC(C(F)(F)F)CC2)cnc1-c1cccc2c(C[C@H](NC(=O)C3(C(F)(F)F)CCN(CC(F)F)CC3)C(=O)O)cccc12 [Compound 925] | < 10 nM | > 1000 nM |  |  |
| COc1cccc(CN2CCCC(F)C2)c1-c1cccc2c(C[C@H](NC(=O)c3c(C)cccc3F)C(=O)O)cccc12 (stereo partly shown) [Compound 1015] | < 10 nM | 100 to 1000 nM |  |  |
| COc1ccc(CN2CCC(F)(F)CC2)c(OC)c1-c1cccc2c(C[C@H](NC(=O)c3c(C)cc4cnn(CC(F)(F)F)c4c3F)C(=O)O)cccc12 [Compound 609] |  |  | 10 to 100 nM | 100 to 1000 nM |
| COc1ccc(CN2CCCCC2)nc1-c1cccc2c(C[C@H](NC(=O)c3c(C)cccc3F)C(=O)O)cccc12 [Compound 1016] | < 10 nM | 100 to 1000 nM |  |  |
| CN(C)Cc1ccc2c(c1)c(C(F)(F)F)c(-c1cccc3c(C[C@H](NC(=O)c4c(F)cccc4CN4CCC(F)(F)CC4)C(=O)O)cccc13)c(=O)n2C [Compound 701] | 10 to 100 nM | > 1000 nM |  |  |
| COc1ccc(CN2CCC(F)(F)CC2)c(OC)c1-c1cccc2c(C[C@H](NC(=O)C3(C(F)(F)F)CCN([C@@H]4COC[C@@H]4F)CC3)C(=O)O)cccc12 [Compound 668] |  |  | < 10 nM | > 1000 nM |
| COc1ccc(CN(C)C)c(OC)c1-c1cccc2c(C[C@H](NC(=O)C3(C(F)(F)F)CCN(CC(F)(F)F)CC3)C(=O)O)cccc12 [Compound 455] |  |  | < 10 nM | 100 to 1000 nM |
| O=C(O)[C@H](Cc1cccc2c(-c3ncc(CN4CCOC(C(F)(F)F)C4)c4ccccc34)cccc12)NC(=O)C1(C(F)(F)F)CCN(CC(F)(F)F)CC1 (stereo partly shown) [Compound 856] | 10 to 100 nM | > 1000 nM |  |  |
| COc1ccc(CN(C)C)c(OC(F)(F)F)c1-c1cccc2c(C[C@H](NC(=O)c3c(C)cccc3F)C(=O)O)cccc12 [Compound 703] | < 10 nM | 100 to 1000 nM |  |  |
| O=C(O)[C@H](Cc1cccc2c(-c3ncc(CN4C5CCCC4CC5)c4ccccc34)cccc12)NC(=O)C1(C(F)(F)F)CCN(CC(F)(F)F)CC1 [Compound 884] | < 10 nM | > 1000 nM |  |  |
| Cc1cccc(F)c1C(=O)N[C@@H](Cc1cccc2c(-c3nccc4c(CN5CCCC5)cccc34)cccc12)C(=O)O [Compound 619] |  |  | < 10 nM | > 1000 nM |
| COc1cc(CN2CCC(F)CC2)cc(OC)c1-c1cccc2c(C[C@H](NC(=O)C3(C(F)(F)F)CCN(CC(F)(F)F)CC3)C(=O)O)cccc12 [Compound 851] | < 10 nM | 100 to 1000 nM |  |  |
| CC1(C(=O)N[C@@H](Cc2cccc3c(-c4ncc(CN5CCCCC5)c5ccccc45)cccc23)C(=O)O)CCN(CC(F)F)CC1 [Compound 687] | < 10 nM | > 1000 nM |  |  |
| COc1ccc(CN2CCC(C)(C)CC2)c(C(F)(F)F)c1-c1cccc2c(C[C@H](NC(=O)C3(C(F)(F)F)CCN(CC(F)(F)F)CC3)C(=O)O)cccc12 [Compound 819] | < 10 nM | 100 to 1000 nM |  |  |
| COc1ccc(CN2CCC(CF)CC2)c(OC)c1-c1cccc2c(C[C@H](NC(=O)c3c(C)cccc3F)C(=O)O)cccc12 [Compound 652] |  |  | < 10 nM | 100 to 1000 nM |
| O=C(O)[C@H](Cc1cccc2c(-c3ncc(CN4CCC5(CCCCC5)CC4)c4ccccc34)cccc12)NC(=O)C1(C(F)(F)F)CCN(CC(F)(F)F)CC1 [Compound 857] | 10 to 100 nM | > 1000 nM |  |  |
| CCCN1CCC(C(=O)N[C@@H](Cc2cccc3c(-c4c(C(F)(F)F)c5ccccc5n(C)c4=O)cccc23)C(=O)O)(C(F)(F)F)CC1 [Compound 535] |  |  | 10 to 100 nM | > 1000 nM |
| COc1ccc(CN2CCC(C)CC2)c(OC)c1-c1cccc2c(C[C@H](NC(=O)c3c(C)cccc3F)C(=O)O)cccc12 [Compound 625] |  |  | < 10 nM | 100 to 1000 nM |
| COc1cc(CN2CCC(F)(F)CC2)cc(OC)c1-c1cccc2c(C[C@H](NC(=O)C3(C(F)(F)F)CCN(CC(F)(F)F)CC3)C(=O)O)cccc12 [Compound 795] | < 10 nM | 100 to 1000 nM |  |  |
| COc1cc(CN2CCCCC2)cnc1-c1cccc2c(C[C@H](NC(=O)C3(C(F)(F)F)CCN(CC(F)(F)F)CC3)C(=O)O)cccc12 [Compound 800] | < 10 nM | > 1000 nM |  |  |
| COc1ccc(CN2CCCC(C)(C)C2)c(OC)c1-c1cccc2c(C[C@H](NC(=O)c3c(C)cccc3F)C(=O)O)cccc12 [Compound 565] |  |  | < 10 nM | 100 to 1000 nM |

| SMILES | IC50 [1, 3] | IC50 [2, 4] | IC50 [1, 5] | IC50 [2, 6] |
| --- | --- | --- | --- | --- |
| COc1ccc(CCN2CCCCC2)cc1-c1cccc2c(C[C@H](NC(=O)c3c(C)cccc3F)C(=O)O)cccc12 [Compound 1001] | 10 to 100 nM | > 1000 nM |  |  |
| COc1cccc(CCN2CCC(C)(C)CC2)c1-c1cccc2c(C[C@H](NC(=O)C3(C(F)(F)F)CCN(CC(F)(F)F)CC3)C(=O)O)cccc12 [Compound 960] | < 10 nM | > 1000 nM |  |  |
| COc1ccc(CN2CCC(F)(F)CC2)c(OC)c1-c1cccc2c(C[C@H](NC(=O)C3(C(F)(F)F)CCN(C4COCC4(F)F)CC3)C(=O)O)cccc12 (single isomer, unassigned) [Compound 639] |  |  | < 10 nM | 100 to 1000 nM |
| Cn1c(=O)c(-c2cccc3c(C[C@H](NC(=O)C4(C)CC5CCC(C4)N5CC(F)(F)F)C(=O)O)cccc23)c(C(F)(F)F)c2ccccc21 (stereo partly shown) [Compound 481] |  |  | 10 to 100 nM | 100 to 1000 nM |
| COc1ccc(CN2CCCC(F)C2)c(C(F)(F)F)c1-c1cccc2c(C[C@H](NC(=O)c3c(C)cccc3F)C(=O)O)cccc12 (stereo partly shown) [Compound 572] |  |  | 10 to 100 nM | > 1000 nM |
| O=C(O)[C@H](Cc1cccc2c(-c3cc(CN4CCCC4)cc4ccncc34)cccc12)NC(=O)C1(C(F)(F)F)CCN(C2COC2)CC1 [Compound 620] |  |  | < 10 nM | > 1000 nM |
| CN(C)Cc1cc(-c2cccc3c(C[C@H](NC(=O)C4(C(F)(F)F)CCN(CC(F)(F)F)CC4)C(=O)O)cccc23)c2cnccc2c1 [Compound 618] |  |  | 10 to 100 nM | > 1000 nM |
| Cn1c(=O)c(-c2cccc3c(C[C@H](NC(=O)C4(C(F)(F)F)CCN(CC(C)(F)F)CC4)C(=O)O)cccc23)c(C(F)(F)F)c2ccccc21 [Compound 534] |  |  | 10 to 100 nM | 100 to 1000 nM |
| COc1ccc(CN2CCC(F)C2)c(OC)c1-c1cccc2c(C[C@H](NC(=O)c3c(C)cccc3F)C(=O)O)cccc12 (stereo partly shown) [Compound 629] |  |  | < 10 nM | > 1000 nM |
| COc1cc(CCN2CCCCC2)ccc1-c1cccc2c(C[C@H](NC(=O)c3c(C)cccc3F)C(=O)O)cccc12 [Compound 740] | < 10 nM | > 1000 nM |  |  |
| COc1ccc(CN2CCN(C)C(C)(C)C2)c(OC)c1-c1cccc2c(C[C@H](NC(=O)C3(C(F)(F)F)CCN(CC(F)(F)F)CC3)C(=O)O)cccc12 [Compound 810] | < 10 nM | 100 to 1000 nM |  |  |
| CC1(C)CCN(Cc2cnc(-c3cccc4c(C[C@H](NC(=O)C5(C(F)(F)F)CCN(CC(F)(F)F)CC5)C(=O)O)cccc34)c3ccccc23)CC1 [Compound 854] | < 10 nM | 100 to 1000 nM |  |  |
| CN1CCCC1c1cc(-c2cccc3c(C[C@H](NC(=O)C4(C(F)(F)F)CCN(CC(F)(F)F)CC4)C(=O)O)cccc23)c2cnccc2c1 (stereo partly shown) [Compound 532] |  |  | 10 to 100 nM | > 1000 nM |
| O=C(O)[C@H](Cc1cccc2c(-c3cc(CN4CCCCC4)cc4cccnc34)cccc12)NC(=O)C1(C(F)(F)F)CCN(CC(F)(F)F)CC1 [Compound 732] | 10 to 100 nM | > 1000 nM |  |  |
| COc1ccc(CN2CCCC(C)C2)c(OC)c1-c1cccc2c(C[C@H](NC(=O)c3c(C)cccc3F)C(=O)O)cccc12 (stereo partly shown) [Compound 643] |  |  | < 10 nM | 100 to 1000 nM |
| Cn1c(=O)c(-c2cccc3c(C[C@H](NC(=O)C4(C(F)(F)F)CCN(C5CCOCC5)CC4)C(=O)O)cccc23)c(C(F)(F)F)c2ccccc21 [Compound 504] |  |  | 10 to 100 nM | > 1000 nM |
| COc1cccc(CN2CCCC(F)C2)c1-c1cccc2c(C[C@H](NC(=O)C3(C(F)(F)F)CCN(CC(F)(F)F)CC3)C(=O)O)cccc12 (stereo partly shown) [Compound 828] | 10 to 100 nM | > 1000 nM |  |  |
| COc1cccc(CCN2CCCC(F)C2)c1-c1cccc2c(C[C@H](NC(=O)C3(C(F)(F)F)CCN(CC(F)(F)F)CC3)C(=O)O)cccc12 (stereo partly shown) [Compound 959] | < 10 nM | 100 to 1000 nM |  |  |
| CC1(C)CCCN(Cc2cnc(-c3cccc4c(C[C@H](NC(=O)C5(C(F)(F)F)CCN(CC(F)F)CC5)C(=O)O)cccc34)c3ccccc23)CC1 [Compound 916] | < 10 nM | 100 to 1000 nM |  |  |
| O=C(O)[C@H](Cc1cccc2c(-c3ncc(CN4CCC[C@H](F)C4)cc3C3CC3)cccc12)NC(=O)C1(C(F)(F)F)CCN(CC(F)F)CC1 [Compound 953] | < 10 nM | 100 to 1000 nM |  |  |
| Cn1c(=O)c(-c2cccc3c(C[C@H](NC(=O)C4(C(F)(F)F)CCN(CC(F)F)CC4)C(=O)O)cccc23)c(C(F)(F)F)c2cc(C(F)(F)F)ccc21 [Compound 537] |  |  | 10 to 100 nM | > 1000 nM |
| CC1(C)CCN(Cc2cccc3c(-c4cccc5c(C[C@H](NC(=O)C6(C(F)(F)F)CCN(CC(F)(F)F)CC6)C(=O)O)cccc45)nccc23)CC1 [Compound 561] |  |  | < 10 nM | > 1000 nM |
